The text below walks through data of the NIST ThermoML archive (doi:10.1021/je2012633).

Numbers after ± are expanded uncertainties.

The conditions of data set [1]: 101 kPa, Liquid, Vibrating tube method.
The nature of data set [2]: xn = mol fraction of the nth substance listed. As to conditions: 308.15 K; 101 kPa; Liquid; Vibrating tube method; x2 = 0.

A word on the mass density: it is the mass of a sample divided by its volume. In the case of `CCOS(=O)(=O)[O-].CCn1cc[n+](C)c1` [1-ethyl-3-methylimidazolium ethyl sulfate], the mass density is listed as 1245.3 ± 1.6 kg/m3 in data set [1] (288.15 K), 1238.3 ± 1.6 kg/m3 in data set [1] (298.15 K), 1231.6 ± 1.6 kg/m3 in data set [1] (308.15 K) and 1224.9 ± 1.6 kg/m3 in data set [1] (318.15 K).

On to `CCCCCCCCOS(=O)(=O)[O-].CCn1cc[n+](C)c1` [1-ethyl-3-methylimidazolium octyl sulfate], for which the mass density is recorded as 1100.7 ± 1 kg/m3 in data set [1] (288.15 K), 1093.8 ± 1 kg/m3 in data set [1] (298.15 K), 1087 ± 1 kg/m3 in data set [1] (308.15 K) and 1080.5 ± 1 kg/m3 in data set [1] (318.15 K).

For `CCCCCCOS(=O)(=O)[O-].CC[n+]1ccn(C)c1` [3-ethyl-1-methyl-1H-imidazolium hexyl sulfate], the mass density in data set [1] (288.15 K) is listed as 1136.6 ± 1.4 kg/m3; in data set [1] (298.15 K) it was 1129.6 ± 1.4 kg/m3; in data set [1] (308.15 K), 1123.1 ± 1.4 kg/m3; in data set [1] (318.15 K) it was 1116.6 ± 1.4 kg/m3.

In the case of `CCCCOS(=O)(=O)[O-].CC[n+]1ccn(C)c1` [3-ethyl-1-methylimidazolium butyl sulfate], the mass density was determined as 1182.5 ± 1.1 kg/m3 in data set [1] (288.15 K), 1175.7 ± 1.1 kg/m3 in data set [1] (298.15 K), 1169 ± 1.1 kg/m3 in data set [1] (308.15 K) and 1162.4 ± 1.1 kg/m3 in data set [1] (318.15 K).

As for `CCO` [ethanol], the mass density in data set [1] (288.15 K) came out at 794.4 ± 1 kg/m3; in data set [1] (298.15 K), 785.8 ± 1 kg/m3; in data set [1] (308.15 K), 777.1 ± 1 kg/m3; in data set [1] (318.15 K) it was 768.3 ± 1 kg/m3.

With `O` [water] + CCCCCCOS(=O)(=O)[O-].CC[n+]1ccn(C)c1, the mass density in data set [2] worked out at 994.1 ± 1 kg/m3.

Consider `O` [water] + CCOS(=O)(=O)[O-].CCn1cc[n+](C)c1, for which, in data set [2], the mass density came out at 994.1 ± 1 kg/m3.
